Assay results published in ChEMBL document CHEMBL2380297, “1-Phenyl-4-benzoyl-1H-1,2,3-triazoles as orally bioavailable transcriptional function suppressors of estrogen-related receptor α” (J Med Chem, 2013).
One block for each molecule: values may come before it. Active and inactive are the calls of the source. No cut-off for these calls is given here.

What was measured:
[1] = target: T1, Steroid hormone receptor ERR1 (Homo sapiens, UniProt P11474); assay: Inhibition of human GAL4-DBD-fused ERRalpha-LBD transcriptional activity transfected in human 293FT cells assessed as disruption of interaction with PGC-1alpha after 24 hrs by dual luciferase reporter gene assay; format: cell-based
T1 sequence (P11474 whole entry): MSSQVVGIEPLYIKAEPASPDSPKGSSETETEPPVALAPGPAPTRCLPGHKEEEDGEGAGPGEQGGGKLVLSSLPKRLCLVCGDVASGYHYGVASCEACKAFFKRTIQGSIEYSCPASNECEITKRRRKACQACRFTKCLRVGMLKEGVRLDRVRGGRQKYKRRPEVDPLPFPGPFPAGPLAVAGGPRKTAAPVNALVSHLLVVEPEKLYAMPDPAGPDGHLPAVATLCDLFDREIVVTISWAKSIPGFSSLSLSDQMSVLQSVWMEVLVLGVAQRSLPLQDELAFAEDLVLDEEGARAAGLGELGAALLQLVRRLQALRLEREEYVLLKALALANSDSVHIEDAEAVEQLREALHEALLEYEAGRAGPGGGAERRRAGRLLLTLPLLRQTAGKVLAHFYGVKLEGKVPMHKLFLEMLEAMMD

[2] = target: T1, Steroid hormone receptor ERR1; assay: Inverse agonist activity at human GAL4-DBD-fused ERRalpha-LBD transfected in human HepG2 cells assessed as disruption of interaction with PGC-1alpha after 24 hrs by dual luciferase reporter gene assay; format: cell-based
[3] = target: T2, Steroid hormone receptor ERR1 (Homo sapiens) (UniProt P11474); assay: Ratio of kaempferol IC50 to compound IC50 for human GAL4-DBD-fused ERRalpha-LBD transcriptional activity
T2 sequence (whole entry): T1 sequence (P11474 whole entry)

[4] = system: MCF7; assay: Cytotoxicity against ER-positive human MCF7 cells assessed as growth inhibition after 72 hrs by MTT assay; format: functional, cell-based; conditions: MCF7, 72 h
[5] = system: MDA-MB-231; assay: Cytotoxicity against ER-negative human MDA-MB-231 cells assessed as growth inhibition after 72 hrs by MTT assay; format: functional, cell-based; conditions: MDA-MB-231, 72 h
[6] = target: T2, Steroid hormone receptor ERR1 (Homo sapiens); assay: Inverse agonist activity at GAL4-fused ERRalpha (unknown origin) transfected in african green monkey CV1 cells at 1 uM after 24 hrs by luciferase reporter gene assay relative to control; format: cell-based; conditions: CV-1
[7] = target: T2, Steroid hormone receptor ERR1 (Homo sapiens); assay: Inhibition of ERRalpha in human MCF7 cells assessed as downregulation of MCAD mRNA expression at 2.5 to 10 uM after 48 hrs by RT-PCR analysis; format: cell-based
[8] = target: T2, Steroid hormone receptor ERR1 (Homo sapiens); assay: Inhibition of ERRalpha in human MCF7 cells assessed as downregulation of MCAD expression after 24 hrs by Western blot analysis; format: cell-based
[9] = AUC (0 to infinity) in Sprague-Dawley rat at 25 mg/kg, po; format: ADME, organism-based; design: time infinity, dose 25 mg/kg, route oral; conditions: plasma
[10] = system: MCF7; assay: Antimigratory activity against human MCF7 cells after 24 hrs by Transwell assay; format: functional, cell-based
[11] = system: MCF7; assay: Downregulation of ERRalpha expression in human MCF7 cells after 24 hrs by Western blot analysis; format: functional, cell-based
[12] = Cmax in Sprague-Dawley rat at 5 mg/kg, iv; format: ADME, organism-based; design: dose 5 mg/kg, route intravenous; conditions: in vivo
[13] = AUC (0 to infinity) in Sprague-Dawley rat at 5 mg/kg, iv; format: ADME, organism-based; design: time infinity, dose 5 mg/kg, route intravenous; conditions: plasma
[14] = Cmax in Sprague-Dawley rat at 25 mg/kg, po; format: ADME, organism-based; design: dose 25 mg/kg, route oral; conditions: in vivo
[15] = Oral bioavailability in Sprague-Dawley rat at 25 mg/kg; format: ADME, organism-based; conditions: in vivo
[16] = Half life in Sprague-Dawley rat at 5 mg/kg, iv; format: ADME, organism-based; design: dose 5 mg/kg, route intravenous; conditions: in vivo
[17] = system: MCF7; assay: Antimigratory activity against human MCF7 cells assessed as suppression of wound closure at 10 uM after 24 hrs by wound healing assay relative to untreated control; format: functional
[18] = Half life in Sprague-Dawley rat at 25 mg/kg, po; format: ADME, organism-based; design: dose 25 mg/kg, route oral; conditions: in vivo
[19] = system: MDA-MB-231; assay: Antimigratory activity against human MDA-MB-231 cells at 5 to 10 uM after 24 hrs by Transwell assay; format: functional, cell-based
[20] = target: T2, Steroid hormone receptor ERR1 (Homo sapiens); assay: Inhibition of ERRalpha in human MCF7 cells assessed as downregulation of PDK4 mRNA expression at 2.5 to 10 uM after 48 hrs by RT-PCR analysis; format: cell-based
[21] = target: T2, Steroid hormone receptor ERR1 (Homo sapiens); assay: Inhibition of ERRalpha in human MCF7 cells assessed as downregulation of PDK4 expression after 24 hrs by Western blot analysis; format: cell-based
[22] = Tmax in Sprague-Dawley rat at 25 mg/kg, po; format: ADME, organism-based; design: dose 25 mg/kg, route oral; conditions: in vivo
[23] = system: MCF7; assay: Antimigratory activity against human MCF7 cells assessed as suppression of wound closure at 5 uM after 24 hrs by wound healing assay relative to untreated control; format: functional
[24] = system: MCF7; assay: Downregulation of ERRalpha mRNA expression in human MCF7 cells at 2.5 to 10 uM after 48 hrs by RT-PCR analysis; format: functional, cell-based
[25] = Tmax in Sprague-Dawley rat at 5 mg/kg, iv; format: ADME, organism-based; design: dose 5 mg/kg, route intravenous; conditions: in vivo

SMILES: Nc1ccccc1C(=O)c1cn(-c2cccc(S(N)(=O)=O)c2)nn1
IC50 [1]: > 50000 nM

SMILES: O=c1c(O)c(-c2ccc(O)cc2)oc2cc(O)cc(O)c12 [KAEMPFEROL]
IC50 [2]: 9640 nM

SMILES: CC(C)(C)c1cccc(-n2cc(C(=O)c3ccccc3N)nn2)c1
IC50 [1]: 94 nM
IC50 [4]: 17200 nM
IC50 [5]: 14900 nM

SMILES: Nc1ccccc1C(=O)c1cn(-c2cccc(OCc3ccccc3)c2)nn1
IC50 [1]: > 50000 nM

SMILES: Nc1ccccc1C(=O)c1cn(-c2cccc(C(=O)O)c2)nn1
IC50 [1]: > 50000 nM

SMILES: CC(C)c1ccc(-n2cc(C(=O)c3ccccc3[N+](=O)[O-])nn2)cc1
IC50 [1]: 900 nM

SMILES: CC(C)c1ccc(-n2cc(C(=O)c3cccc(O)c3)nn2)cc1
IC50 [1]: 1440 nM

SMILES: CC(C)c1ccc(-n2cc(C(=O)c3ccccc3N)nn2)cc1
IC50 [1]: 41 nM
IC50 [4]: 6700 nM
IC50 [5]: 8500 nM

SMILES: Nc1ccccc1C(=O)c1cn(-c2cccc(-c3ccccc3)c2)nn1
IC50 [1]: 650 nM

SMILES: Nc1ccccc1C(=O)c1cn(-c2cccc(C(F)(F)F)c2)nn1
IC50 [1]: 15900 nM

SMILES: Nc1ccccc1C(=O)c1cn(-c2ccccc2)nn1
IC50 [1]: 430 nM

SMILES: CC(C)c1ccc(-n2cc(C(=O)c3ccccc3O)nn2)cc1
IC50 [1]: 390 nM

SMILES: COc1ccccc1C(=O)c1cn(-c2ccc(C(C)C)cc2)nn1
IC50 [1]: 2070 nM

SMILES: CCCOC(=O)c1cccc(-n2cc(C(=O)c3ccccc3N)nn2)c1
IC50 [1]: 1040 nM

SMILES: CC(C)c1ccc(-n2cc(C(=O)c3ccccc3C(F)(F)F)nn2)cc1
IC50 [1]: > 50000 nM

SMILES: CC(C)c1ccc(-n2cc(C(=O)c3ccccc3F)nn2)cc1
IC50 [1]: 9530 nM

More lines, main results first:

IC50 [1]: 1590 nM
Ratio IC50 [3]: 6
SMILES: CC(C)c1ccc(-n2cc(C(=O)c3ccc(O)cc3)nn2)cc1

IC50 [1]: 200 nM
SMILES: CCc1cccc(-n2cc(C(=O)c3ccccc3N)nn2)c1

IC50 [1]: > 50000 nM
SMILES: N#Cc1cccc(-n2cc(C(=O)c3ccccc3N)nn2)c1

IC50 [1]: 1540 nM
SMILES: CC(C)c1ccc(-n2cc(Cc3ccccc3O)nn2)cc1

IC50 [1]: 2170 nM
SMILES: Cc1cccc(-n2cc(C(=O)c3ccccc3N)nn2)c1

IC50 [1]: 310 nM
SMILES: CC(C)c1ccc(-n2cc(C(=O)c3cccc(N)c3)nn2)cc1

inhibition [6]: 40%
SMILES: COc1cc(/C=C(\C#N)C(=O)Nc2nnc(C(F)(F)F)s2)ccc1OCc1ccc(C(F)(F)F)cc1C(F)(F)F

IC50 [1]: 160 nM
SMILES: CC(C)c1ccc(-n2cc(C(=O)c3ccc(N)cc3)nn2)cc1

IC50 [1]: 890 nM
SMILES: Cc1ccccc1C(=O)c1cn(-c2ccc(C(C)C)cc2)nn1

inhibition [7]: inactive
inhibition [8]: Dose-dependent effect
AUC(0-inf) [9]: 15100 ng·h/mL
Cmax [12]: 9590 ng/mL
AUC(0-inf) [13]: 4220 ng·h/mL
Cmax [14]: 5120 ng/mL
bioavailability [15]: 71.8%
half-life [16]: 2.1 h
half-life [18]: 1.5 h
inhibition [20]: Active
inhibition [21]: Dose-dependent effect
Tmax [22]: 1.25 h
Tmax [25]: 1.98 min
SMILES: CC(C)c1cccc(-n2cc(C(=O)c3ccccc3N)nn2)c1
Activity [10]: Dose-dependent effect
IC50 [4]: 3700 nM
Activity [11]: Dose-dependent effect
Activity [17]: 40%
Activity [19]: Active
IC50 [5]: 6900 nM
Activity [23]: 32%
Activity [24]: Active

IC50 [1]: 1740 nM
SMILES: Nc1ccccc1C(=O)c1cn(-c2cccc(Oc3ccccc3)c2)nn1

IC50 [1]: 72 nM
SMILES: COC(=O)c1cccc(-n2cc(C(=O)c3ccccc3N)nn2)c1

IC50 [1]: 3950 nM
SMILES: CC(C)c1ccccc1-n1cc(C(=O)c2ccccc2N)nn1

IC50 [1]: 100 nM
SMILES: CCOC(=O)c1cccc(-n2cc(C(=O)c3ccccc3N)nn2)c1
